{"source": "patent US20070254323A1", "about": "“Malachite green derivatives for immunoassay reagents to detect malachite green” (priority 2006, published 2007)", "key": {"[1]": {"tested_on": "anti-Malachite Green antibodies", "test": "competitive ELISA: sensitivity and specificity of the produced anti-Malachite Green antibodies", "type": "binding, rabbit", "conditions": "for level detectable by the antibodies: competitive inhibition ELISA; for Cross-reactivities / Sensitivity: competitive ELISA; for Cross-reactivities: Malachite Green = 100; for Sensitivity: produced anti-Malachite Green antibodies", "protocol": "In accordance with this embodiment, the diluted antiserum is added to a Malachite Green Chromatic conjugate-coated solid substrate such as the wells of an assay plate, together with a range of concentrations of free Malachite Green Chromatic as a competitor. Following incubation and washing, bound antibody in the wells is determined. Percent inhibition may be calculated as (1−B/B0)×100 where B is the optical density (OD) of a well with a competitor and B0 is the mean OD of the wells without competitor (control). […] However, for even greater accuracy, the affinity may be alternatively measured at 50% inhibition (IC50). […] Detection of bound antibody may be accomplished by addition of enzyme-labeled anti-immunoglobulin antibodies followed by enzyme substrate. Horseradish peroxidase and its substrate TMB are preferred enzyme/substrate labels. However, it is understood that other enzyme/substrate labels or non-enzyme labels such as radiolabels or chromophores may also be used.\nTwo female New Zealand White Rabbits, 8 weeks old, were initially immunized by intraperitoneal injection with 0.2 mg of Malachite Green-KLH conjugate as prepared in EXAMPLE 1 mixed with complete Freund's adjuvant. Five booster immunizations were administered at 15-day intervals using the antigen. Blood was collected 7 to 10 days after the last booster immunization in order to check for antibody titers. Titers were checked using both indirect ELISA and competitive ELISA that employed Malachite Green Chromatic-BSA conjugate as the coating antigen and free Malachite Green Chromatic as competitor. […] A typical competitive ELISA procedure is described below: • (1). In the Malachite Green Chromatic-BSA coated 96-well plate, add 50 μL of negative control and each Malachite Green Chromatic standard (1, 5, 10, 25, 50, 100 ng/mL) in duplicate into different wells; add 50 μL of each sample in duplicate into different sample wells. • (2). Add 100 μL of diluted Malachite Green Antibody #1 and mix well by gently tapping the edge of the plate for 10 seconds. • (3). Incubate the plate for 30 min at 37° C. or 1 hr at room temperature (15-25° C.). • (4). Wash the plate 3 times with 250 μL 1×PBS. After the last wash, gently slap the plate dry on paper towels. • (5). Add 150 μL of HRP Goat-against Rabbit antibody conjugate solution. Incubate the plate for 30 min at 37° C. or 1 hr at room temperature (15-25° C.). • (6). Wash the plate 3 times with 250 μL 1×PBS. After the last wash, gently slap the plate dry on paper towels. • (7). Add 100 μL of TMB substrate. • (8). Time the reaction immediately after adding the substrate; mix the solution by gently tapping the edge of the plate. • (9). After incubating for 15 min at room temperature, add 100 μL of 1 M H2SO4 to stop the enzyme reaction before reading the plate at 450 nm."}, "[2]": {"tested_on": "Leukomalachite Green antibody", "conditions": "Randox antibody raised against Leucomalachite Green immunogen; cited from earlier work"}, "[3]": {"conditions": "in fish; cited from earlier work"}}}
{"compound": "CN(C)c1ccc(C(O)(c2ccccc2)c2ccc(N(C)C)cc2)cc1", "note": "[Carbinol]", "values": [{"measurement": "level detectable by the antibodies", "setting": "[1]", "result": 0.5, "unit": "ng/mL"}]}
{"compound": "O=C(N[C@H](CO)[C@H](O)c1ccc([N+](=O)[O-])cc1)C(Cl)Cl", "note": "[Chloramphenicol]", "values": [{"measurement": "Cross-reactivities", "setting": "[1]", "result": "<0.01", "unit": "%"}, {"measurement": "Sensitivity", "setting": "[1]", "result": ">10,000 ng/ml"}]}
{"compound": "CC(C)(C)NCC(O)c1cc(Cl)c(N)c(Cl)c1", "note": "(centres unmarked) [Clenbuterol]", "values": [{"measurement": "Cross-reactivities", "setting": "[1]", "result": "<0.01", "unit": "%"}, {"measurement": "Sensitivity", "setting": "[1]", "result": ">10,000 ng/ml"}]}
{"compound": "CN(C)c1ccc(C(=C2C=CC(=[N+](C)C)C=C2)c2ccc(N(C)C)cc2)cc1", "note": "[Crystal Violet]", "values": [{"measurement": "Cross-reactivities", "setting": "[1]", "result": 42, "unit": "%"}, {"measurement": "Sensitivity", "setting": "[1]", "result": 10, "unit": "ng/mL"}]}
{"compound": "O=C1OCCN1/N=C/c1ccc([N+](=O)[O-])o1", "note": "[Furazolidone]", "values": [{"measurement": "Sensitivity", "setting": "[1]", "result": ">10,000 ng/ml"}]}
{"compound": "CN(C)c1ccc(C(c2ccc(N(C)C)cc2)c2ccc(N(C)C)cc2)cc1", "note": "[Leucocrystal Violet]", "values": [{"measurement": "Cross-reactivities", "setting": "[1]", "result": "<0.01", "unit": "%"}, {"measurement": "Sensitivity", "setting": "[1]", "result": 5000, "unit": "ng/mL"}]}
{"compound": "CN(C)c1ccc(C(c2ccccc2)c2ccc(N(C)C)cc2)cc1", "note": "[Leucomalachite Green]", "values": [{"measurement": "Cross-reactivities", "setting": "[1]", "result": 1, "unit": "%"}, {"measurement": "Sensitivity", "setting": "[1]", "result": 500, "unit": "ng/mL"}, {"measurement": "level detectable by the antibodies", "setting": "[1]", "result": 0.5, "unit": "ng/mL"}]}
{"compound": "CN(C)c1ccc(C(=C2C=CC(=[N+](C)C)C=C2)c2ccccc2)cc1", "note": "[Malachite Green]", "values": [{"measurement": "Cross-reactivities", "setting": "[1]", "result": 100, "unit": "%"}, {"measurement": "Sensitivity", "setting": "[1]", "result": 1, "unit": "ng/mL"}, {"measurement": "test sensitivity", "setting": "[1]; produced antibodies, Table 1 summary", "result": 1, "unit": "ppb"}, {"measurement": "cross reactivity", "setting": "[2]", "result": 26.8, "unit": "%"}, {"measurement": "converted into Leucomalachite Green", "setting": "[3]", "result": "~80", "unit": "%"}]}
{"compound": "Cc1cc(C)nc(NS(=O)(=O)c2ccc(N)cc2)n1", "note": "[Sulfumethazine]", "values": [{"measurement": "Cross-reactivities", "setting": "[1]", "result": "<0.01", "unit": "%"}, {"measurement": "Sensitivity", "setting": "[1]", "result": ">10,000 ng/ml"}]}
